These results are taken from patent US20250041278A1, “TLR8 AGONIST FOR MODULATING IMMUNE RESPONSE” (The Children's Medical Center Corporation, priority 2021, published 2025).

One assay concerns the target T1, hTLR8 (Homo sapiens, UniProt Q9NR97).
T1 construct: host or cells: HEK-293 reporter cells
T1 sequence (Q9NR97 27-1041): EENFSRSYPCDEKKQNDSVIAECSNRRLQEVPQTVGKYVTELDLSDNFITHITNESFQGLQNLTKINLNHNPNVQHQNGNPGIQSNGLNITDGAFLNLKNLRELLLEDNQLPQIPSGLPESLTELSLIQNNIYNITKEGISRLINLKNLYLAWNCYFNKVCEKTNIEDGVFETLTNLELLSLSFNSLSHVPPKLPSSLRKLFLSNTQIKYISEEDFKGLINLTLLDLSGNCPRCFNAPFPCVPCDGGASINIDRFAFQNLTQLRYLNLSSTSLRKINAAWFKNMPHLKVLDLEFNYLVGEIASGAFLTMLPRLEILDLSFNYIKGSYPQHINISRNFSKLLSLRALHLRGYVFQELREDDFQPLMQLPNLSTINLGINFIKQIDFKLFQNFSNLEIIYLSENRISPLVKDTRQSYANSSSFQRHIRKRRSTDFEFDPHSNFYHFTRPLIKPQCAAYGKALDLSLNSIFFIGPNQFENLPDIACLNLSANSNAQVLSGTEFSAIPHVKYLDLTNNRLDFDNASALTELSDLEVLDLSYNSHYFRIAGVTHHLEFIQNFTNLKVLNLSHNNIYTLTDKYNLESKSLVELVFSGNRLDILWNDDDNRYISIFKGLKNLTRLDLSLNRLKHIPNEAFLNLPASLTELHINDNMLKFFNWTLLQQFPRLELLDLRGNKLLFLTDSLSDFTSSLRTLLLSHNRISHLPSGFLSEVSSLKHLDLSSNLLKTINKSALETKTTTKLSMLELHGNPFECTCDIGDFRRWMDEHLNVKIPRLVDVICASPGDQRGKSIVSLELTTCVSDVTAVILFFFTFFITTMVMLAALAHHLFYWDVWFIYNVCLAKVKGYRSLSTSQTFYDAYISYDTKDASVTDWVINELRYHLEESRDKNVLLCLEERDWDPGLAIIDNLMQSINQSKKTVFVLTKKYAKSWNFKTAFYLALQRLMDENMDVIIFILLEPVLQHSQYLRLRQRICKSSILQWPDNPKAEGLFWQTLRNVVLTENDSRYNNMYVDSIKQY
The assay can be described thus: HEK-293 hTLR8 NF-κB/AP-1 SEAP reporter assay. The class given is cell-based. Here is the method:
FIGS. 3A-3E. PVP-179 is a TLR8 agonist. FIG. 3A: PVP-179 was sent to InvivoGen for PRR ligand screening service. Various cells lines were utilized to screen for PVP-179-induced ([…]) activation of TLRs, NOD1/2, RIG-I/MDA-5, Dectin-1 or Mincle receptor. The heat-map depicts percentage activity compared to the positive control for each receptor. FIG. 3B: PVP-179 induced activity (% activity compared to the positive control: CL075 at 1 μg/mL) in HEK-293 cells specifically expressing hTLR8. In brief, these cells have an NF-κB/AP-1-inducible secreted embryonic alkaline phosphatase (SEAP) reporter gene which allows monitoring of signaling via TLR8. After incubation for 16-24 hours, supernatant harvested from the cells is mixed with media containing SEAP-substrate and the optical density (OD) is measured at 650 nm using a spectrophotometer. FIG. 3C: As in FIG. 3B, HEK cells specifically expressing hTLR2, hTLR7, or hTLR8, in addition to the HEK-Null cell line carrying only the reporter gene, were stimulated with the indicated concentrations of PVP-179. […] PVP-179 activity is expressed as a percentage of NF-κB induced in the cells stimulated with TNF (positive control for each cell line). […] The supernatants were harvested after 20-24 hours and SEAP production (to assess NF-κB activity) was measured using QUANTIBlue assay. […]

The test system of assay [1] is human monocyte derived macrophages. The assay can be described thus: TNF ELISA in human monocyte derived macrophages. In kind it is cell-based. The conditions noted are these: 20-24 hours. On the procedure: FIGS. 4A-4D. PVP-179 activates human macrophages and dendritic cells. FIGS. 4A-4B: Murine mononuclear cells were isolated from bone marrow and induced differentiation into dendritic cells (with GM-CSF and IL-4). After 5 days of culturing, these bone-marrow-derived dendritic cells (BMDCs) were stimulated with PVP-179 or MPLA for 18 hours at indicated concentrations. The supernatants were analyzed via ELISA where each dot in the graph represents the mean production of mTNF (FIG. 4A) and mIL-6 (FIG. 4B). N=6 for PVP-179, N=3 for MPLA. Two-way Anova was performed to determine statistical significance. The comparisons shown are compared to control group (0 M PVP-179). FIGS. 4C-4D: PBMCs were isolated from blood of adult human donors. CD14+ monocytes were specifically isolated from the PBMCs and were then cultured in 10% autologous plasma and induced to differentiate into macrophages with M-CSF (FIG. 4C), or dendritic cells with GM-CSF and IL-4 (FIG. 4D). After 5 days, cells were harvested from each differentiated cell type (macrophages: Mφ; dendritic cells: MoDCs) and a 96-well plate was setup with 100,000 cells/well. Cells were then stimulated with indicated concentrations of PVP-179 or R848 (33 μM) or LPS (100 ng/mL). After 20-24 hours of incubation, supernatants were harvested and applied to TNF ELISA. N=2 donors.
In general terms: In an ELISA, binding on a coated surface is turned into a signal by an enzyme label.

`CCCCn1c(/N=C/c2nc3ccccc3n2C)nc2ccccc21` [PVP-179]: on hTLR8 (20-24 hours), the “NF-κB activity in HEK cells expressing hTLR8” value was “concentration-dependent activity”. For the same compound, the “activity in HEK-hTLR8 cells after TLR8 inhibitor CUCPT-9a” value on hTLR8 (CUCPT-9a 1 μM, PVP-179 at 33 μM or above) is reported as “significantly blocked”. Moreover, in assay [1], the TNF-inducing activity entry was “concentration-dependent activity”.
